Measurements as given in patent US10993976B2, “Medicament for treating uremia and proteinuria” (Shandong Zhonghai Pharmaceutical CO. LTD, priority 2016, dated 2021).

Test system: patient who is suffering from CRF of renal insufficiency at decompensation stage
Assay: Clinical application of the medicament in treating uremia and proteinuria (Embodiment 7 test method)
Assay type: in vivo, human
From the text: Patient selection: choose the patient who is suffering from CRF of renal insufficiency at decompensation stage (The content of SCr is within the range of 186-442 umol/L) to study. The primary disease is chronic glomerulonephritis (CGN) and nephrotic syndrome (NS), except CRF caused by renal arteriosclerosis, diabetic nephropathy and renal cysts.
These investigated patients were randomly divided into groups, 50 patients in each group, aged 19-66 years (mean 44.6±12.6 years), with a course of disease 12-46 months (mean 22.6±8.6 months).
Treatment group 1-6: The patients in embodiment 1-6 received the medicament mentioned of the invention, with a dose of 3 g/day, three times a day.
Control group: The patients received the oral administration of coated aldehyde oxystarch 5 g-10 g, twice a day.
All groups were treated with 1 month as a course of treatment.
The patients stopped using Chinese and western medicine 2 weeks before treatment. […] They were given high quality low protein, low phosphorus and high calorie diet, correction of water and electrolyte disorders and acidosis, and anti-infection, in order to remove those reversible factors that may cause temporary renal dysfunction. Lotensin 5-20 mg was given to the patients with hypertension, once a day, or/and nifedipine 10-20 mg, three or four times a day.
X2 test was used for enumeration data and t test was used for measurement data. […]

[1] = 50 patients per group, after 3 courses of treatment (1 month each), medicament 3 g/day
[2] = patients, after 3 courses of treatment

Substance: coated aldehyde oxystarch [Contrast]
- Total effective rate (%) (50 patients per group, after 3 courses of treatment): 64%
- Effective (case) [1]: 22 case
- Ineffective (case) [1]: 18 case
- Markedly effective (case) [1]: 10 case
- Blood coagulation factor I (Fib, patients, after 3 courses of treatment): 3.88 ± 0.48 g/L
- Hb (hemoglobin, patients, after 3 courses of treatment): 82.4 ± 9.5 g/L
- Urine protein (patients, 24 h urine protein, after 3 courses of treatment): 2.78 ± 1.59 g/24 h
- Blood usea nitrogen [2]: 16.0 ± 6.4 mmol/L
- SCr [2]: 298.5 ± 76.8 µmol/L
- Whole blood viscosity [2]: 4.98 ± 1.0
- Alb (plasma albumin, patients, after 3 courses of treatment): 30.4 ± 3.0 g/L
